These are literature values, as cited in paper PMC8513935.

The nature of the data set: experimental, compiled by the authors from the literature (the ESI cites the sources).

As for `OC1CCCCCCC1`, the log K of transfer, gas to solvent is 5.05 log10 K (Hexadecane, 25 C) and 3.81 log10 K (Water, 25 C).

Turning to `C[C@@H]1CCCC[C@@H]1C`, the log K of transfer, gas to solvent by setting is: (Hexadecane, 25 C) 3.85 log10 K; (Water, 25 C) -1.17 log10 K.

As to `CC(C)CCC(C)(C)C`, the log K of transfer, gas to solvent reads like this: (Hexadecane, 25 C) 3.57 log10 K; (Water, 25 C) -2.15 log10 K.

For `Fc1cccc(Cl)c1`, the log K of transfer, gas to solvent is, setting by setting: (Hexadecane, 25 C) 3.53 log10 K; (Water, 25 C) 0.65 log10 K.

Take `CCF`: the log K of transfer, gas to solvent was 0.751 log10 K (Hexadecane, 25 C); 1.31 log10 K (Tetrahydrofuran, 25 C); -0.3 log10 K (Water, 25 C).

`Oc1ccc(F)cc1`: the log K of transfer, gas to solvent by setting is: (1,2-Dichloroethane, 25 C) 5.25 log10 K; (CCl4, 25 C) 4.28 log10 K; (Hexadecane, 25 C) 3.84 log10 K; (Water, 25 C) 4.54 log10 K.

For the compound `Fc1ccccc1Cl`, the log K of transfer, gas to solvent by setting is: (Hexadecane, 25 C) 3.64 log10 K; (Water, 25 C) 0.72 log10 K.

As to `CCCCCCCCCCCCCCO`, the log K of transfer, gas to solvent runs as follows: (Decan-1-ol, 25 C) 8.88 log10 K; (Hexadecane, 25 C) 7.63 log10 K; (Hexan-1-ol, 25 C) 8.94 log10 K; (Propan-2-ol, 25 C) 9.05 log10 K; (Water, 25 C) 2.26 log10 K.

As to `CCCCC(C)CC` (centres unmarked), the log K of transfer, gas to solvent is, setting by setting: (Hexadecane, 25 C) 3.51 log10 K; (Water, 25 C) -2.18 log10 K.

As to `CCCN`, the log K of transfer, gas to solvent was 2.96 log10 K (1,2-Dichloroethane, 25 C); 2.7 log10 K (Benzene, 25 C); 2.63 log10 K (CCl4, 25 C); 2.63 log10 K (Chlorobenzene, 25 C); 3.47 log10 K (Chloroform, 25 C); 2.24 log10 K (Cyclohexane, 25 C). Also, the log K of transfer, gas to solvent (Di-n-butyl ether, 25 C) is 2.14 log10 K; the log K of transfer, gas to solvent (Hexadecane, 25 C) was 2.14 log10 K; the log K of transfer, gas to solvent (Hexane, 25 C) is 2.26 log10 K; the log K of transfer, gas to solvent (Toluene, 25 C) was 2.57 log10 K; the log K of transfer, gas to solvent (Water, 25 C) is 3.22 log10 K.

For the compound `C[C@H]1CC[C@H](C)CC1`, the log K of transfer, gas to solvent (Hexadecane, 25 C) was 3.64 log10 K and the log K of transfer, gas to solvent (Water, 25 C) was -1.4 log10 K.

`CCCSCCC`: the log K of transfer, gas to solvent by setting is: (Hexadecane, 25 C) 4.01 log10 K; (Water, 25 C) 0.94 log10 K.

For `N`, the log K of transfer, gas to solvent (2-Methylpropan-1-ol, 25 C) was 1.86 log10 K; the log K of transfer, gas to solvent (Butan-1-ol, 25 C) is 1.76 log10 K; the log K of transfer, gas to solvent (Butanone, 25 C) is 1.42 log10 K; the log K of transfer, gas to solvent (CCl4, 25 C) was 0.79 log10 K; the log K of transfer, gas to solvent (Chlorobenzene, 25 C) was 0.999 log10 K; the log K of transfer, gas to solvent (Chloroform, 25 C) is 1.77 log10 K. Also, the log K of transfer, gas to solvent is 2.01 log10 K (Ethanol, 25 C); 0.319 log10 K (Hexadecane, 25 C); 2.26 log10 K (Methanol, 25 C); 1.76 log10 K (Propan-1-ol, 25 C); 1.74 log10 K (Propan-2-ol, 25 C); 1.48 log10 K (Propanone, 25 C). For the same compound, the log K of transfer, gas to solvent (Water, 25 C) is 3.19 log10 K.

With `CCCC(=O)CC`, the log K of transfer, gas to solvent is 3.27 log10 K (Hexadecane, 25 C) and 2.41 log10 K (Water, 25 C).

Take `CCCF`: the log K of transfer, gas to solvent reads like this: (Hexadecane, 25 C) 1.25 log10 K; (Water, 25 C) -0.24 log10 K.

In the case of `CC(=O)C1CCCCC1`, the log K of transfer, gas to solvent is, setting by setting: (Hexadecane, 25 C) 4.62 log10 K; (Water, 25 C) 3.28 log10 K.

As to `CCCC(C)(C)O`, the log K of transfer, gas to solvent by setting is: (Hexadecane, 25 C) 3.24 log10 K; (Water, 25 C) 3.25 log10 K.

For `Cc1cccnc1C`, the log K of transfer, gas to solvent is 4.04 log10 K (Hexadecane, 25 C) and 3.54 log10 K (Water, 25 C).

Consider `CC(=O)CC(C)C`, for which the log K of transfer, gas to solvent runs as follows: (Hexadecane, 25 C) 3.09 log10 K; (Water, 25 C) 2.24 log10 K.

As to `OC1CCCCCC1`, the log K of transfer, gas to solvent was 4.4 log10 K (Hexadecane, 25 C) and 4.02 log10 K (Water, 25 C).

Turning to `CN1CCCC1=O`, the log K of transfer, gas to solvent reads like this: (Hexadecane, 25 C) 3.83 log10 K; (Water, 25 C) 5.74 log10 K.

Consider `C=CCCCCCCCCC`, for which the log K of transfer, gas to solvent by setting is: (Hexadecane, 25 C) 5.02 log10 K; (Water, 25 C) -1.75 log10 K.

In the case of `CCCCCCCCCCCCCCCCCCCO`, the log K of transfer, gas to solvent runs as follows: (Hexadecane, 25 C) 10.2 log10 K; (Water, 25 C) 1.66 log10 K.

Take `CCCCCCCC(C)C`: the log K of transfer, gas to solvent (Hexadecane, 25 C) is 4.45 log10 K and the log K of transfer, gas to solvent (Water, 25 C) is -2.27 log10 K.

With `C=CCCCCCCCCCC`, the log K of transfer, gas to solvent by setting is: (Hexadecane, 25 C) 5.51 log10 K; (Water, 25 C) -1.87 log10 K.

Consider `CCCC1CCCCC1`, for which the log K of transfer, gas to solvent reads like this: (Hexadecane, 25 C) 4.31 log10 K; (Water, 25 C) -1.32 log10 K.

As for `COC1CCCCC1`, the log K of transfer, gas to solvent is, setting by setting: (Hexadecane, 25 C) 3.86 log10 K; (Water, 25 C) 2.43 log10 K.

On to `CCOC`, for which the log K of transfer, gas to solvent by setting is: (Hexadecane, 25 C) 1.59 log10 K; (Water, 25 C) 1.54 log10 K.

`CCCCNC(C)=O`: the log K of transfer, gas to solvent was 4.58 log10 K (Hexadecane, 25 C) and 6.57 log10 K (Water, 25 C).

With `Cc1ccncc1C`, the log K of transfer, gas to solvent was 4.31 log10 K (Hexadecane, 25 C) and 3.83 log10 K (Water, 25 C).

In the case of `CC(C)(C)C1CCCCC1`, the log K of transfer, gas to solvent is 4.6 log10 K (Hexadecane, 25 C) and -1.28 log10 K (Water, 25 C).

Turning to `CCCCCC1CCCC1`, the log K of transfer, gas to solvent reads like this: (Hexadecane, 25 C) 4.6 log10 K; (Water, 25 C) -1.87 log10 K.

`CC1CCCNC1` (centres unmarked): the log K of transfer, gas to solvent was 3.23 log10 K (Hexadecane, 25 C) and 3.16 log10 K (Water, 25 C).
